System: SW1271 complex spheroids with HUVEC/MSC, growth, % test/control
Assay: Anticancer human tumor SW1271 cell line growth inhibition [AhR];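 further: spheroids exposed to agents for 7 days before readout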
Conditions: for IC50: curve of first compound; for viability, T/C: stronger effect = lower value
Summary of the method: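 Agents were dosed in half-log steps down from roughly clinical Cmax, or from 10 microM where Cmax was unknown, alone and with AhR antagonists. Read-out: percent test/control growth of tumor spheroids containing HUVEC and MSC stromal cells.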

## CC(C)c1c(-c2ccccc2)nc2c(C#N)c[nH]n2c1=O + Cc1cncc(-c2nc(NCCc3c[nH]c4ccccc34)c3ncn(C(C)C)c3n2)c1
Second compound 0.1 µM
  IC50: > 10 µM
Second compound 0.316 µM
  IC50: > 10 µM
Second compound 1 µM
  IC50: > 10 µM
Second compound 3.16 µM
  IC50: > 10 µM
Second compound 10 µM
  IC50: 0.472 µM
Second compound 0.1 µM, first compound 0.0316 µM
  viability, T/C: 104%
Second compound 0.1 µM, first compound 0.1 µM
  viability, T/C: 104%
Second compound 0.1 µM, first compound 0.316 µM
  viability, T/C: 96.4%
Second compound 0.1 µM, first compound 1 µM
  viability, T/C: 111%
Second compound 0.1 µM, first compound 3.16 µM
  viability, T/C: 102%
Second compound 0.1 µM, first compound 10 µM
  viability, T/C: 108%
Second compound 0.316 µM, first compound 0.0316 µM
  viability, T/C: 85.2%
Second compound 0.316 µM, first compound 0.1 µM
  viability, T/C: 121%
Second compound 0.316 µM, first compound 0.316 µM
  viability, T/C: 100%
Second compound 0.316 µM, first compound 1 µM
  viability, T/C: 96.3%
Second compound 0.316 µM, first compound 3.16 µM
  viability, T/C: 95.9%
Second compound 0.316 µM, first compound 10 µM
  viability, T/C: 106%
Second compound 1 µM, first compound 0.0316 µM
  viability, T/C: 89.5%
Second compound 1 µM, first compound 0.1 µM
  viability, T/C: 111%
Second compound 1 µM, first compound 0.316 µM
  viability, T/C: 87.6%
Second compound 1 µM, first compound 1 µM
  viability, T/C: 80.2%
Second compound 1 µM, first compound 3.16 µM
  viability, T/C: 87.7%
Second compound 1 µM, first compound 10 µM
  viability, T/C: 82.5%
Second compound 3.16 µM, first compound 0.0316 µM
  viability, T/C: 90.1%
Second compound 3.16 µM, first compound 0.1 µM
  viability, T/C: 93.7%
Second compound 3.16 µM, first compound 0.316 µM
  viability, T/C: 109%
Second compound 3.16 µM, first compound 1 µM
  viability, T/C: 91.5%
Second compound 3.16 µM, first compound 3.16 µM
  viability, T/C: 99.2%
Second compound 3.16 µM, first compound 10 µM
  viability, T/C: 99.9%
Second compound 10 µM, first compound 0.0316 µM
  viability, T/C: 53.4%
Second compound 10 µM, first compound 0.1 µM
  viability, T/C: 58%
Second compound 10 µM, first compound 0.316 µM
  viability, T/C: 48%
Second compound 10 µM, first compound 1 µM
  viability, T/C: 48.2%
Second compound 10 µM, first compound 3.16 µM
  viability, T/C: 44.8%
Second compound 10 µM, first compound 10 µM
  viability, T/C: 50.4%

— PubChem BioAssay AID1919017 (Molecular Pharmacology Branch, DTP, NCI, 2023)
